Results from patent EP0714884A1, “A method for the production of a basic amino acid” (Ajinomoto Co., Inc., priority 1994, dated 1996).

Assay: Filterability evaluation: time period required for filtration through a membrane filter
Type: physicochemical
Conditions: for Filtration period of aqueous solution: L-arginine 5g/dl, 30°C, 1.4 ℓ, 2 x 10⁵ Pa, Millipore 0.22 µmGS membrane filter; for filterability: neutral to acidic pH, result in words
Procedure: The dried purified crystals were obtained by the three method described above were filtered under the condition shown below to compare the filterability. The pH was adjusted with 2N aqueous solution of HCl, and the filterability was evaluated by determining the time period required for the filtration.
The dried purified crystals obtained by the method described above were filtered under conditions similar to those in Example 1 to evaluate the filterability.

Compound	Filtration period of aqueous solution (pH 3)	Filtration period of aqueous solution (pH 5)	Filtration period of aqueous solution (pH 7)	Filtration period of aqueous solution (pH 11)	filterability
N=C(N)NCCC[C@H](N)C(=O)O [Solution of purified crystals by LR-O method] [L-arginine]	914 s	920 s	918 s	921 s	–
N=C(N)NCCC[C@H](N)C(=O)O [UF method, L-arginine]	Occlusion	2640 s	1400 s	850 s	extremely poor filterability
N=C(N)NCCC[C@H](N)C(=O)O [LR-O method, L-arginine]	920 s	880 s	910 s	930 s	no deterioration of the filterability
N=C(N)NCCC[C@H](N)C(=O)O [Conventional method, L-arginine]	Occlusion	8000 s	1510 s	1010 s	extremely poor filterability
